Key:
IMC-1 (IL-2 20 ng/mL) [1] = assay: drug sensitivity score (DSS) (DSS units); higher = more sensitive; extreme values may be limits of the assay; settings: 72 h
[2] = system: normal primary NK cells, pool 3 (3 donors) (IL-2 2.5 ng/mL); assay: as above; settings: 72 h
YT (IL-2 2.5 ng/mL) [3] = assay: as above; settings: 72 h
NK-92 (IL-2 2.5 ng/mL) [4] = assay: as above; settings: 72 h
SNK-6 (IL-2 2.5 ng/mL) [5] = assay: as above; settings: 72 h
NK-YS (IL-2 2.5 ng/mL) [6] = assay: as above; settings: 72 h
NKL (IL-2 2.5 ng/mL) [7] = assay: as above; settings: 72 h
DERL-7 (IL-2 2.5 ng/mL) [8] = assay: as above; settings: 72 h
[9] = system: normal primary NK cells, pool 1 (3 donors) (IL-2 2.5 ng/mL); assay: as above; settings: 72 h
KHYG-1 (IL-2 2.5 ng/mL) [10] = assay: as above; settings: 72 h
[11] = system: normal primary NK cells, pool 1 (3 donors), resting (IL-2 0 ng/mL); assay: as above; settings: 72 h
KAI3 (IL-2 2.5 ng/mL) [12] = assay: as above; settings: 72 h
[13] = system: normal primary NK cells, pool 2 (3 donors) (IL-2 2.5 ng/mL); assay: as above; settings: 72 h
[14] = system: normal NK cells expanded with K562-aAPC; assay: percent inhibition of viability; higher = more inhibition; settings: 72 h, IL-2 2.5 ng/mL
Experimental: (§1)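 Drug sensitivity and resistance testing on K562-aAPC-expanded normal NK cells: 5 concentrations (10-fold steps over a 10,000-fold range), 72 h at 37 °C, viability by CellTiter-Glo normalised to DMSO and benzethonium chloride controls; DSS from the fitted curve.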

IMC-1 (IL-2 20 ng/mL) [15] = assay: as above; settings: 72 h
[16] = system: normal primary NK cells, pool 3 (3 donors) (IL-2 2.5 ng/mL); assay: as above; settings: 72 h
YT (IL-2 2.5 ng/mL) [17] = assay: as above; settings: 72 h
NK-92 (IL-2 2.5 ng/mL) [18] = assay: as above; settings: 72 h
SNK-6 (IL-2 2.5 ng/mL) [19] = assay: as above; settings: 72 h
NK-YS (IL-2 2.5 ng/mL) [20] = assay: as above; settings: 72 h
NKL (IL-2 2.5 ng/mL) [21] = assay: as above; settings: 72 h
DERL-7 (IL-2 2.5 ng/mL) [22] = assay: as above; settings: 72 h
[23] = system: normal primary NK cells, pool 1 (3 donors) (IL-2 2.5 ng/mL); assay: as above; settings: 72 h
KHYG-1 (IL-2 2.5 ng/mL) [24] = assay: as above; settings: 72 h
[25] = system: normal primary NK cells, pool 1 (3 donors), resting (IL-2 0 ng/mL); assay: as above; settings: 72 h
KAI3 (IL-2 2.5 ng/mL) [26] = assay: as above; settings: 72 h
[27] = system: normal primary NK cells, pool 2 (3 donors) (IL-2 2.5 ng/mL); assay: as above; settings: 72 h
[28] = system: normal NK cells expanded with K562-aAPC; assay: drug sensitivity score (DSS) (DSS units); higher = more sensitive; extreme values may be limits of the assay; settings: 72 h; IL-2 2.5 ng/mL
Experimental: as §1

CN(c1ccccc1CNc1nc(Nc2ccc3c(c2)CC(=O)N3)ncc1C(F)(F)F)S(C)(=O)=O (max concentration tested 10000 nM)
Settings	drug sensitivity score
DERL-7 (IL-2 2.5 ng/mL) [8]	14.4
IMC-1 (IL-2 20 ng/mL) [1]	11.1
KAI3 (IL-2 2.5 ng/mL) [12]	9.97
KHYG-1 (IL-2 2.5 ng/mL) [10]	14.9
NK-92 (IL-2 2.5 ng/mL) [4]	8.85
NK-YS (IL-2 2.5 ng/mL) [6]	11.6
NKL (IL-2 2.5 ng/mL) [7]	13.3
SNK-6 (IL-2 2.5 ng/mL) [5]	5.93
YT (IL-2 2.5 ng/mL) [3]	9.64
[2]	8.12
[9]	10.5
[11]	3.72
[13]	8.64
[28]	12.4

percent inhibition of viability [%]
Settings	1 nM	10 nM	100 nM	1000 nM	10000 nM
DERL-7 (IL-2 2.5 ng/mL) [22]	-11.5	1.19	-8.22	78.2	101
IMC-1 (IL-2 20 ng/mL) [15]	-8.05	-9.43	-5.71	42.5	100
KAI3 (IL-2 2.5 ng/mL) [26]	2.15	-4.73	-2.81	30.6	106
KHYG-1 (IL-2 2.5 ng/mL) [24]	3.44	-1.15	1.69	81.4	109
NK-92 (IL-2 2.5 ng/mL) [18]	-16.5	-24	-36	20.4	108
NK-YS (IL-2 2.5 ng/mL) [20]	-1.08	-5.55	-3.8	48.1	106
NKL (IL-2 2.5 ng/mL) [21]	-5.61	-8.98	4.68	65.6	109
SNK-6 (IL-2 2.5 ng/mL) [19]	-0.86	-15.1	-15.1	15.3	64.4
YT (IL-2 2.5 ng/mL) [17]	0.31	-4.2	-5.3	27.2	109
[14]	-7.88	-4.41	-2.88	58	101
[16]	-4.56	-2.11	-3.97	15.6	100
[23]	4.57	-5.98	14.5	42.7	99.6
[25]	-21.8	-18.3	-4.27	-35.7	91.4
[27]	-24.5	-16.5	-8.34	20.1	98.1

Nc1ncnc2c1nc(N)n2[C@@H]1O[C@H](CO)[C@@H](O)[C@H]1O [8-amino-adenosine] (max concentration tested 50000 nM)
Settings	drug sensitivity score
DERL-7 (IL-2 2.5 ng/mL) [8]	24.3
IMC-1 (IL-2 20 ng/mL) [1]	20.1
KAI3 (IL-2 2.5 ng/mL) [12]	26.6
KHYG-1 (IL-2 2.5 ng/mL) [10]	21.4
NK-92 (IL-2 2.5 ng/mL) [4]	25
NK-YS (IL-2 2.5 ng/mL) [6]	22
NKL (IL-2 2.5 ng/mL) [7]	25.6
SNK-6 (IL-2 2.5 ng/mL) [5]	32.5
YT (IL-2 2.5 ng/mL) [3]	21.3
[2]	8.22
[9]	8.3
[11]	4.92
[13]	9.73
[28]	22.2

percent inhibition of viability [%]
Settings	5 nM	50 nM	500 nM	5000 nM	50000 nM
DERL-7 (IL-2 2.5 ng/mL) [22]	-0.37	-2.93	51.5	101	101
IMC-1 (IL-2 20 ng/mL) [15]	-2.9	-0.37	12.2	101	101
KAI3 (IL-2 2.5 ng/mL) [26]	-12.9	-1.89	75.4	104	106
KHYG-1 (IL-2 2.5 ng/mL) [24]	-1.34	-2.24	21.2	105	109
NK-92 (IL-2 2.5 ng/mL) [18]	-19.1	-2.94	59.2	106	109
NK-YS (IL-2 2.5 ng/mL) [20]	-5.77	-1.64	26	102	108
NKL (IL-2 2.5 ng/mL) [21]	-18.8	6.72	63	107	109
SNK-6 (IL-2 2.5 ng/mL) [19]	24.4	39.9	75.8	99	101
YT (IL-2 2.5 ng/mL) [17]	-0.2	1.01	20.2	102	110
[14]	-1.82	3.86	28.5	101	101
[16]	-13.3	-8.61	10.2	31	84.2
[23]	2.12	-9.21	1.92	26.5	81.2
[25]	-6.09	-20.9	-6.28	5.09	75.2
[27]	-14.7	-1.95	0.14	36.1	88.7

CCn1c(-c2nonc2N)nc2cnc(Oc3cccc(NC(=O)c4ccc(OCCN5CCOCC5)cc4)c3)cc21 (max concentration tested 10000 nM)
Settings	drug sensitivity score
DERL-7 (IL-2 2.5 ng/mL) [8]	18.2
IMC-1 (IL-2 20 ng/mL) [1]	2.4
KAI3 (IL-2 2.5 ng/mL) [12]	9.52
KHYG-1 (IL-2 2.5 ng/mL) [10]	6.96
NK-92 (IL-2 2.5 ng/mL) [4]	12.4
NK-YS (IL-2 2.5 ng/mL) [6]	12.6
NKL (IL-2 2.5 ng/mL) [7]	5.93
SNK-6 (IL-2 2.5 ng/mL) [5]	19.4
YT (IL-2 2.5 ng/mL) [3]	2.8
[2]	5.91
[9]	6.54
[11]	4.87
[13]	4.86
[28]	3.71

percent inhibition of viability [%]
Settings	1 nM	10 nM	100 nM	1000 nM	10000 nM
DERL-7 (IL-2 2.5 ng/mL) [22]	1.35	15.3	42.9	62.8	72.7
IMC-1 (IL-2 20 ng/mL) [15]	-0.83	-2.25	6.95	14.1	26.8
KAI3 (IL-2 2.5 ng/mL) [26]	-3.04	-8.72	11.1	37.2	95
KHYG-1 (IL-2 2.5 ng/mL) [24]	1.19	3.45	16.6	24.8	68.2
NK-92 (IL-2 2.5 ng/mL) [18]	-3.47	11.4	34.4	37.1	74
NK-YS (IL-2 2.5 ng/mL) [20]	-0.26	-0.53	30.8	48.4	41.9
NKL (IL-2 2.5 ng/mL) [21]	-13.6	-19.1	-8.42	24	52.5
SNK-6 (IL-2 2.5 ng/mL) [19]	-9.46	8.6	49.6	70.1	55.5
YT (IL-2 2.5 ng/mL) [17]	1.84	-0.78	1.36	15.7	28.5
[14]	7.28	-0.78	-0.39	9.1	43.7
[16]	-9.45	-1.75	4.61	14.9	64.5
[23]	-7.22	2.09	6.8	18.7	70
[25]	-4.42	-15.8	7.47	11.9	54.7
[27]	-8.71	-2.3	9.01	9.21	60.8

CNC(=O)c1ccc(N2C(=S)N(c3ccc(C#N)c(C(F)(F)F)c3)C(=O)C2(C)C)cc1F [Enzalutamide] (max concentration tested 10000 nM)
Settings	drug sensitivity score
DERL-7 (IL-2 2.5 ng/mL) [8]	0
IMC-1 (IL-2 20 ng/mL) [1]	0.37
KAI3 (IL-2 2.5 ng/mL) [12]	0
KHYG-1 (IL-2 2.5 ng/mL) [10]	0
NK-92 (IL-2 2.5 ng/mL) [4]	0.49
NK-YS (IL-2 2.5 ng/mL) [6]	0
NKL (IL-2 2.5 ng/mL) [7]	0
SNK-6 (IL-2 2.5 ng/mL) [5]	4.37
YT (IL-2 2.5 ng/mL) [3]	0
[2]	0
[9]	0
[11]	2.39
[13]	0
[28]	0

percent inhibition of viability [%]
Settings	1 nM	10 nM	100 nM	1000 nM	10000 nM
DERL-7 (IL-2 2.5 ng/mL) [22]	-1.7	-4.09	-9.3	-2.76	-5
IMC-1 (IL-2 20 ng/mL) [15]	-3.38	0.92	-2.2	-1.9	18.3
KAI3 (IL-2 2.5 ng/mL) [26]	-6.43	-7.59	-3.84	-14.2	-5.9
KHYG-1 (IL-2 2.5 ng/mL) [24]	-6.93	-4.23	-3.55	-6.97	4.84
NK-92 (IL-2 2.5 ng/mL) [18]	1.65	-8.18	-6.81	-3.14	20.8
NK-YS (IL-2 2.5 ng/mL) [20]	-6.5	-3.69	-3.22	-8.67	5.9
NKL (IL-2 2.5 ng/mL) [21]	-2.17	-13.2	-14	-9.34	1.3
SNK-6 (IL-2 2.5 ng/mL) [19]	12.3	20.8	-9.97	42.2	17.6
YT (IL-2 2.5 ng/mL) [17]	-1.41	-1.46	-3.16	-4.82	3.56
[14]	-2.32	-10.8	-8.2	-6.11	-8.96
[16]	-14.6	-16.8	-6.74	-9.3	-4.81
[23]	-3.9	0.9	-0.41	-2.29	4.21
[25]	7.62	-0.58	-1.62	6.1	31.6
[27]	-10.2	-3.87	-13.1	-6.47	3.77

— the supplement of paper PMC5908809
